The results in this text go back to patent publication US5158946A, “Cephalosporin derivatives and pharmaceutical compositions” (Beecham Group p.l.c., priority 1989, dated 1992).

Each structure is given as a SMILES string. In brackets after ≈: the same amount, converted by molar mass. Where a name gives a salt, the structure may show the parent alone. Read-outs that look alike come from different tables or passages of the source. Bounds are passed on as bounds.

As usually defined, the MIC is the smallest concentration in the dilution series that meets the test's criterion for growth inhibition.

The test system of one assay is E. coli (NCTC 10418). Description: In vitro antibacterial activity, MIC against E. coli (NCTC 10418). It is filed as cell-based.
The next assay has as its system S. aureus (Oxford). The experiment in a line: In vitro antibacterial activity, MIC against S. aureus (Oxford). It is filed as cell-based.
Setting [1] is: Escherichia coli, NCTC10418, E. coli (NCTC 10418), read-out: MIC.
The mark [2] stands for this setting: Staphylococcus aureus, read-out: MIC.

As to `CO/N=C(\C(=O)N[C@@H]1C(=O)N2C(C(=O)O)=C(OC3C=C(C)C(=O)O3)CS[C@H]12)c1csc(N)n1` (single isomer, unassigned) [3 Isomer (b)], the results for the MIC against E. coli (NCTC 10418) (E. coli (NCTC 10418)) and with S. aureus (Oxford) were 0.12 µg/mL (≈ 0.242 µM) and 4 µg/mL (≈ 8.07 µM), respectively.

In the case of `CO/N=C(\C(=O)N[C@@H]1C(=O)N2C(C(=O)[O-])=C(SC3CCOC3=O)CS[C@H]12)c1csc(N)n1.[Na+]` (stereo partly drawn) [Example 9, Sodium 7β-[2-(2-Aminothiazol-4-yl)-2-(Z)-methoxyiminoacetamido]-3-(2-oxotetrahydrofuran-3-ylthio)ceph-3-em-4-carboxylate], the MIC with E. coli (NCTC 10418) (setting [1]) was determined as 0.12 µg/mL; with S. aureus (Oxford) (setting [2]), 2 µg/mL.

Regarding `Nc1nc(/C(=N/OCC(=O)O)C(=O)N[C@@H]2C(=O)N3C(C(=O)O)=C(CSC4=CC(=O)OC4)CS[C@H]23)cs1` [Example 16, 7β-[2-(2-Aminothiazol-4-yl)-2-(Z)-carboxymethoxyiminoacetamido]-3-(2,5-dihydro-2-oxofuran-4-ylthiomethyl)ceph-3-em-4-carboxylic acid, disodium salt], the MIC in the assay on E. coli (NCTC 10418) (setting [1]) was less than 0.06 µg/mL; in the assay on S. aureus (Oxford) (setting [2]) it was 8 µg/mL.

As for `CO/N=C(\C(=O)N[C@@H]1C(=O)N2C(C(=O)O)=C(OC3C=C(C)C(=O)O3)CS[C@H]12)c1csc(N)n1` (single isomer, unassigned) [3 Isomer (a)], the MIC against E. coli (NCTC 10418) (E. coli (NCTC 10418)) is 0.5 µg/mL (≈ 1.01 µM); with S. aureus (Oxford) (setting [2]) it was 4 µg/mL (≈ 8.07 µM).

Regarding `CO/N=C(\C(=O)N[C@@H]1C(=O)N2C(C(=O)O)=C(CSc3ccoc(=O)c3)CS[C@H]12)c1csc(N)n1` [Example 15, Sodium 7β-[2-(2-Aminothiazol-4-yl)-2-(Z)-methoxyiminoacetamido]-3-(2-oxo-2H-pyran-4-ylthiomethyl)ceph-3-em-4-carboxylate], the values for the MIC in the assay with E. coli (NCTC 10418) (setting [1]) and in the assay with S. aureus (Oxford) (setting [2]) were less than 0.03 µg/mL and 0.25 µg/mL, respectively.

Turning to `CO/N=C(\C(=O)N[C@@H]1C(=O)N2C(C(=O)[O-])=C(SCC3=CCOC3=O)CS[C@H]12)c1csc(N)n1.[Na+]` [Example 7, Sodium 7β-[2-(2-Aminothiazol-4-yl)-2-(Z)-methoxyiminoacetamido]-3-(2,5-dihydro-2-oxofuran-3-ylmethylthio)ceph-3-em-4-carboxylate], the MIC in the assay with E. coli (NCTC 10418) (setting [1]) is less than 0.03 µg/mL; in the assay on S. aureus (Oxford) (setting [2]), 0.5 µg/mL.

In the case of `CO/N=C(\C(=O)N[C@@H]1C(=O)N2C(C(=O)O)=C(Sc3cc(C)oc(=O)c3)CS[C@H]12)c1csc(N)n1` [Example 4, Sodium 7β-[2-(2-Aminothiazol-4-yl)-2-(Z)-methoxyiminoacetamido]-3-(6-methyl-2-oxo-2H-pyran-4-ylthio)ceph-3-em-4-carboxylate], the MIC with E. coli (NCTC 10418) (setting [1]) came out at 0.25 µg/mL; in the assay with S. aureus (Oxford) (setting [2]), 1 µg/mL.

Consider `CO/N=C(\C(=O)N[C@@H]1C(=O)N2C(C(=O)O)=C(SC3=CC(=O)OC3)CS[C@H]12)c1csc(N)n1` [Example 2, Sodium 7β-[2-(2-Aminothiazol-4-yl)-2-(Z)-methoxyiminoacetamido]-3-(2,5-dihydro-2-oxofuran-4-ylthio)ceph-3-em-4-carboxylate], for which the MIC with E. coli (NCTC 10418) (setting [1]) turned out to be 0.12 µg/mL; with S. aureus (Oxford) (setting [2]), 1 µg/mL.

With `CO/N=C(\C(=O)N[C@@H]1C(=O)N2C(C(=O)[O-])=C(SCC3=CC(=O)OC3)CS[C@H]12)c1csc(N)n1.[Na+]` [Example 1, Sodium 7β-[2-(2-Aminothiazol-4-yl)-2-(Z)-methoxyiminoacetamido]-3-(2,5-dihydro-2-oxofuran-4-ylmethylthio)ceph-3-em-4-carboxylate], the MIC is less than 0.03 µg/mL with E. coli (NCTC 10418) (setting [1]) and 0.25 µg/mL in the assay with S. aureus (Oxford) (setting [2]).

In the case of `Nc1nc(/C(=N/O)C(=O)N[C@@H]2C(=O)N3C(C(=O)O)=C(CSC4=CC(=O)OC4)CS[C@H]23)cs1` [Example 6, 7β-[2-(2-Aminothiazol-4-yl)-2-(Z)-hydroxyiminoacetamido]-3-(2,5-dihydro-2-oxofuran-4-ylthiomethyl)ceph-3-em-4-carboxylic acid], the values for the MIC in the assay on E. coli (NCTC 10418) (setting [1]) and in the assay on S. aureus (Oxford) (setting [2]) were less than 0.03 µg/mL and 0.12 µg/mL (≈ 0.241 µM), respectively.

`CO/N=C(\C(=O)N[C@@H]1C(=O)N2C(C(=O)[O-])=C(OCC3=CC(=O)OC3)CS[C@H]12)c1csc(N)n1.[Na+]` [Example 22, Sodium 7β-[2-(2-Aminothiazol-4-yl)-2-(Z)-methoxyiminoacetamido]-3-(2,5-dihydro-2-oxofuran-4-ylmethyloxy)ceph-3-em-4-carboxylate]: the MIC in the assay on E. coli (NCTC 10418) (setting [1]) turned out to be 0.06 µg/mL; in the assay with S. aureus (Oxford) (setting [2]), 2 µg/mL.

Turning to `Nc1nc(/C(=N/O)C(=O)N[C@@H]2C(=O)N3C(C(=O)O)=C(SCC4=CCOC4=O)CS[C@H]23)cs1` [Example 8, 7β-[2-(2-Aminothiazol-4-yl)-2-(Z)-hydroxyiminoacetamido]-3-(2,5-dihydro-2-oxofuran-3-ylmethylthio)ceph-3-em-4-carboxylic acid], the MIC in the assay with E. coli (NCTC 10418) (setting [1]) came out at 0.12 µg/mL (≈ 0.241 µM); in the assay on S. aureus (Oxford) (setting [2]), 0.25 µg/mL (≈ 0.502 µM).

In the case of `Nc1nc(/C(=N/O)C(=O)N[C@@H]2C(=O)N3C(C(=O)O)=C(SCC4=CC(=O)OC4)CS[C@H]23)cs1` [Example 12, 7β-[2-(2-Aminothiazol-4-yl)-2-(Z)-hydroxyiminoacetamido]-3-(2,5-dihydro-2-oxofuran-4-ylmethylthio)ceph-3-em-4-carboxylic acid], the MIC is 0.12 µg/mL (≈ 0.241 µM) in the assay on E. coli (NCTC 10418) (setting [1]) and 0.25 µg/mL (≈ 0.502 µM) in the assay on S. aureus (Oxford) (setting [2]).

`CO/N=C(\C(=O)N[C@@H]1C(=O)N2C(C(=O)[O-])=C(CSC3=C(Cl)C(=O)OC3)CS[C@H]12)c1csc(N)n1.[Na+]` [Example 13, Sodium 7β-[2-(2-Aminothiazol-4-yl)-2-(Z)-methoxyiminoacetamido]-3-(3-chloro-2,5-dihydro-2-oxofuran-4-ylthiomethyl)ceph-3-em-4-carboxylate]: the MIC in the assay with E. coli (NCTC 10418) (setting [1]) was less than 0.03 µg/mL; with S. aureus (Oxford) (setting [2]), 0.25 µg/mL.

With `CO/N=C(\C(=O)N[C@@H]1C(=O)N2C(C(=O)O)=C(CSc3cc(C)oc(=O)c3)CS[C@H]12)c1csc(N)n1` [Example 14, Sodium 7β-[2-(2-Aminothiazol-4-yl)-2-(Z)-methoxyiminoacetamido]-3-(6-methyl-2-oxo-2H-pyran-4-ylthiomethyl)ceph-3-em-4-carboxylate], the MIC in the assay on E. coli (NCTC 10418) (setting [1]) was less than 0.03 µg/mL; in the assay on S. aureus (Oxford) (setting [2]) it was 0.5 µg/mL.

For `Cc1cc(SCC2=C(C(=O)O)N3C(=O)[C@@H](NC(=O)/C(=N\O)c4csc(N)n4)[C@H]3SC2)cc(=O)o1` [Example 17, 7β-[2-(2-Aminothiazol-4-yl)-2-(Z)-hydroxyiminoacetamido]-3-(6-methyl-2-oxo-2H-pyran-4-ylthiomethyl)ceph-3-em-4-carboxylic acid], the MIC with E. coli (NCTC 10418) (setting [1]) came to 0.06 µg/mL (≈ 0.115 µM); in the assay on S. aureus (Oxford) (setting [2]), 0.25 µg/mL (≈ 0.477 µM).

For the compound `CO/N=C(\C(=O)N[C@@H]1C(=O)N2C(C(=O)[O-])=C(CSC3=CC(=O)OC3)CS[C@H]12)c1csc(N)n1.[Na+]` [Example 5, Sodium 7β-[2-(2-Aminothiazol-4-yl)-2-(Z)-methoxyiminoacetamido]-3-(2,5-dihydro-2-oxofuran-4-ylthiomethyl)ceph-3-em-4-carboxylate], the values for the MIC with E. coli (NCTC 10418) (setting [1]) and with S. aureus (Oxford) (setting [2]) were less than 0.03 µg/mL and 0.25 µg/mL, respectively.
